# Laboratory results taken from PMC6581027, “In vitro Radiopharmaceutical Evidence for MCHR1 Binding Sites in Murine Brown Adipocytes” (Frontiers in Endocrinology, 2019).
# Read-outs that look alike come from different tables or passages of the source.
# Columns and labels:
# [1] = test system: murine brown adipocytes; experiment: Specific [11C]SNAP-7941 binding to brown adipocytes (competition); type: cell-based; conditions: 2 μM unlabeled compound; for [11C]SNAP-7941 binding per well referring to baseline: 30 min pre-treatment, baseline (vehicle) = 100% binding/well, mean ± SD
# Experimental: (§1) Cells were maintained under standard conditions in a humidified incubator (37°C, 5% CO2). CHO-K1 cells expressing the human adrenergic beta-3 receptor (CHO-K1-ADRB3) were purchased from PerkinElmer (ValiScreen® ES-035-C). CHO-K1-ADRB3 were grown using Ham's F12 (Nut Mix) supplemented with 10% FCS, 2 mM L-glutamine, penicillin (100 Units/mL), streptomycin (100 μg/mL), and 0.4 mg/mL geneticin. CHO-K1 cells were a generous gift from Prof. Karl Norbert Klotz (University Würzburg, Germany) and cultured likewise without selection antibiotics. Immortalized murine brown pre-adipocytes were provided by the Department of Medicine III (Medical University of Vienna, Austria) and cultured in high glucose Dulbecco's Modified Eagle's Medium (DMEM) supplemented with 10% FBS, 1 mM pyruvate, penicillin (100 Units/mL) and streptomycin (100 μg/mL). When cells were confluent, differentiation to brown adipocytes was induced for 48 h using 1.72 μM insulin (human recombinant), 1 nM thyroid hormone (T3), 0.5 mM 3-isobutyl-1-methylxanthine (IBMX), 125 nM indomethacin, and 1 μM dexamethasone. After induction, the medium was changed to post-differentiation medium (high glucose DMEM) supplemented with 10% FBS, 1 mM pyruvate, penicillin (100 Units/mL), streptomycin (100 μg/mL), 1.72 μM insulin, and 1 nM T3. The post-differentiation medium was replenished every second day. Brown adipocytes were used for experimental investigations 4–6 days after induction. Oil Red O staining was performed according to the manufacturer's instructions. Counterstaining was performed using haematoxylin.
# Brown pre-adipocytes were seeded, grown to confluence and differentiated in six-well plates as described above. Thirty minutes prior to the experiment, maintenance medium (cf. 2.1) was discarded and replaced with respective serum- and additive-free medium to avoid plasma protein binding of the PET-tracer. Cell starving, as performed for [^18F]FDG uptake measurements, was not indicated for [^11C]SNAP-7941 binding experiments. […] Baseline was determined using DMSO or ethanol, respectively. Sample processing, data analysis and statistical testing were performed as described in [^18F]FDG Uptake Experiments: Effects of MCHR1 Ligands on Brown Adipocyte Activation.
# [2] = test system: murine brown adipocytes; experiment: [18F]FDG uptake in brown adipocytes (brown adipocyte activation); type: cell-based; conditions: 30 min pre-treatment, baseline (vehicle) = 100% uptake/well, mean ± SD
# Experimental: as §1
# Brown pre-adipocytes were seeded, grown to confluence and differentiated in 6-well plates as described in section General. Cell starving was performed for 1 h using unsupplemented, glucose-free DMEM. […] [^18F]FDG uptake was performed for 50 min at 37°C (humidified atmosphere, 5% CO2). Supernatant was taken off, cells were washed with ice-cold PBS and finally trypsinized. Radioactive cell fractions were gamma counted (2480 Wizard^2, PerkinElmer) and normalized to percentage uptake per well. [^18F]FDG uptake under baseline conditions refers to 100% uptake. Three independent experiments were performed in triplicates. Statistical analysis was performed using an unpaired, two-tailed t-test.
# [3] = target: MCHR1; set-up: method as in PMID 28808288; conditions: previously described; ref [28]; cited from earlier work
# [4] = target: T1, CHO-K1-ADRB3 cells (Homo sapiens, UniProt P13945); experiment: Real-time kinetic displacement of [125I]Iodocyanopindolol binding (LigandTracer); type: cell-based; conditions: 20 μM non-radioactive compound applied after 60 min association phase
# T1 construct: host or cells: CHO-K1
# T1 sequence (P13945 whole entry): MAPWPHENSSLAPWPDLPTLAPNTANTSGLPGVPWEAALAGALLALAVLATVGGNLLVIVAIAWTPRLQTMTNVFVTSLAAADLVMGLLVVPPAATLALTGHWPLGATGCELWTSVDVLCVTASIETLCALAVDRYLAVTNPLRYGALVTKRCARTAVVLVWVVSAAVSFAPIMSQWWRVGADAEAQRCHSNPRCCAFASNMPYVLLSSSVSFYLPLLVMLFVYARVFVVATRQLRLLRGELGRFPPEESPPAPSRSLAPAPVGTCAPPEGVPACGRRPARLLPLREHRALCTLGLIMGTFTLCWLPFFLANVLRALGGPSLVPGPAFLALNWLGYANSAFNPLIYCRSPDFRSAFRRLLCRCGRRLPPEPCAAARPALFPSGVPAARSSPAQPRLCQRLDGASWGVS
# Experimental: 2.5 × 10^5 cells (CHO-K1, CHO-K1-ADRB3) per cell culture dish were seeded 2 days prior to the experiment and incubated in an inclined position to allow an adherent cell pole at one side of the cell dish. Cell dish preparation was performed as previously described ([32], [33]). Real-time kinetic radioligand binding measurements were performed using a dedicated device for low energy gamma radiation (LigandTracer® Gray Technology, Ridgeview, Sweden). The assay protocol compromised consecutive radioactivity measurements of the target region (cell pole) and of the opposite pole of the petri dish, where no cells were seeded (background signal). Radioactivity was counted in each region for 3 s with a delay of 2 s over the time course of the experiment. Raw counts per second (cps) of the target region were corrected for background signal and for radioactive decay. Displacement of [^125I]Iodocyanopindolol binding was conducted after 1 h association phase of radioligand binding by consecutively applying rising concentrations of SNAP-7941 and FE@SNAP. The same volume of ethanol was added as vehicle control. Experiments were performed on at least three different days.
# [5] = target: T2, human adrenergic beta-3 receptor (ADRB3) (Homo sapiens, UniProt P13945); experiment: Competitive binding assay, CHO-K1-ADRB3 cell membranes, [3H]CGP-12177 radioligand; conditions: for Ki: CHO-K1-ADRB3 membranes, 5 nM [3H]CGP-12177, 90 min 27°C, read-out: Ki ADRB3 experimental; for ADRB3/ MCHR1 (ratio of Ki values): selectivity toward MCHR1, ADRB3 Ki measured, MCHR1 Ki from ref [28]
# T2 construct: host or cells: CHO-K1
# T2 sequence (P13945 whole entry): as above
# Experimental: CHO-K1-ADRB3 cell membranes were prepared from 175 cm^2 cell culture flasks, when 80% confluence was reached. All procedures were performed at 4°C. Cells were scraped off using ice-cold lysis buffer (10 mM Tris-HCl pH 7.4, 1 mM EDTA) and protease inhibitor cocktail was added according to the manufacturer's instructions (Sigma-Aldrich, St. Louis, USA). The cell suspension was homogenized using cannulas (29 G) and centrifuged for 10 min at 1,000 × g. The obtained supernatant was centrifuged for 30 min at 100,000 × g. Subsequently, the pellet was suspended using 50 mM Tris-HCl pH 7.4 and aliquoted. Aliquots were shock-frozen in liquid nitrogen and stored at −80°C until usage. Protein concentration of the cell membrane suspension was determined using BCA Protein Assay Kit (Thermo Scientific, Waltham, USA).
# All stated concentrations refer to the final assay volume of 500 μL buffer (25 mM HEPES pH 7.4, 1 mM EDTA, 0.5% BSA). Competitive binding assays were performed using 13.6 ng/μL ADRB3 expressing CHO-K1 cell membrane suspension (cf. 2.3) and 5 nM [^3H]CGP-12177 as the respective radioligand. […] Nonspecific binding was determined using 10 μM carazolol. Total binding was determined in the presence of 1% respective solvent. Incubation was performed for 90 min at 27°C. Filtration through GF/B filters (Whatman®, presoaked in 0.05% PEI) was performed using a cell harvester (Brandel®, Gaithersburg, MD, USA) and was followed by two washing steps using ice-cold wash buffer (10 mM HEPES, 500 mM NaCl, pH 7.4). Filter pieces containing receptor-bound radioactivity were shaken for 30 min in scintillation cocktail (Ultima Gold™, PerkinElmer, Waltham, USA) before liquid scintillation counting (Hidex 300 SL, Turku, Finland). IC50 fitted binding curves were generated using the GraphPad Software 5.0 (La Jolla, CA, USA) using nonlinear regression.
# [6] = target: ADRB3; set-up: method as in PMID 20590599; conditions: assumed for Ki calculation; ref [31]; cited from earlier work
# [7] = target: ADRB3; set-up: method as in PMID 14730417, PMID 8719421, PMID 7903415, PMID 2570461; conditions: literature values for standard compounds; ref [43], [45]–[47]; read-out: Ki ADRB3 reference; cited from earlier work
Effect on [125I]Iodocyanopindolol binding to CHO-K1-ADRB3 cells [4],Ki ([5]; n = 3 in triplicates) [µM],ADRB3/ MCHR1 (ratio of Ki values) [5],SMILES,[11C]SNAP-7941 binding per well referring to baseline [1] [%],[18F]FDG uptake referring to baseline ([2]; 2 μM compound),Ki [3] [nM],[18F]FDG uptake referring to baseline ([2]; 20 μM compound) [%],also measured
,,,"CC(C)NC[C@H](O)COc1cccc2ccccc12.Cl [(S)-propranolol, (S)-propranolol hydrochloride]",95.8 ± 8.6,did not alter,,,[11C]SNAP-7941 binding per well referring to baseline ([1]; listed as propranolol): did not alter
,,,"C[C@H](Cc1ccc2c(c1)OC(C(=O)[O-])(C(=O)[O-])O2)NC[C@H](O)c1cccc(Cl)c1.[Na+].[Na+] [CL 316,243, reference compound]",91.1 ± 3.6,137.7 ± 12.2%,,,
did not affect binding,65.1 ± 2.9,"~6,523",COCC1=C(C(=O)OCCF)C(c2ccc(F)c(F)c2)N(C(=O)NCCCN2CCC(c3cccc(NC(C)=O)c3)CC2)C(=O)N1 (centres unmarked) [FE@SNAP],,,9.98 ± 1.12,73.03 ± 13.6,
did not affect binding,14.5 ± 0.3,"~3,708",COCC1=C(C(=O)OC)[C@H](c2ccc(F)c(F)c2)N(C(=O)NCCCN2CCC(c3cccc(NC(C)=O)c3)CC2)C(=O)N1 [SNAP-7941],77.1 ± 5.0,,3.91 ± 0.74,63.24 ± 2.6,Reduction of [11C]SNAP-7941 binding ([1]; versus baseline): 22.9 ± 5.0%
,,,"CC(C)(C)NCC(O)COc1cccc2[nH]c(=O)[nH]c12 (stereo not drawn) [[^3H]CGP-12177, 5,7-[^3H](-)CGP-12177]",,,,,Kd [6]: 109 nM
,,,"CC(C)NCC(O)COc1cccc2[nH]c3ccccc3c12 (centres unmarked) [carazolol, reference compound]",,,,,Ki ([5]; three independent experiments in triplicates): 0.002 ± 0.0003 µM; Ki [7]: 2 nM
